Laboratory results taken from patent US20250002471A1 (Gilead Sciences, Inc., priority 2020, published 2025).
Like-named read-outs stand apart in the source and are kept apart here.

What was measured:
TLR7 = target: T1, TLR7 (Homo sapiens, UniProt Q9NYK1); assay: Human PBMC cell-based assay, TLR7 agonist GS-986 stimulation, cytokine (IL-6 and IFNα) readout; conditions: human PBMCs, read-out: TLR-7 EC50
T1 construct: lymphocytes, monocytes and dendritic cells that express TLR7, TLR8 and TLR9; endogenous in cells; host or cells: human PBMCs from healthy donors
T1 sequence (Q9NYK1 27-1049): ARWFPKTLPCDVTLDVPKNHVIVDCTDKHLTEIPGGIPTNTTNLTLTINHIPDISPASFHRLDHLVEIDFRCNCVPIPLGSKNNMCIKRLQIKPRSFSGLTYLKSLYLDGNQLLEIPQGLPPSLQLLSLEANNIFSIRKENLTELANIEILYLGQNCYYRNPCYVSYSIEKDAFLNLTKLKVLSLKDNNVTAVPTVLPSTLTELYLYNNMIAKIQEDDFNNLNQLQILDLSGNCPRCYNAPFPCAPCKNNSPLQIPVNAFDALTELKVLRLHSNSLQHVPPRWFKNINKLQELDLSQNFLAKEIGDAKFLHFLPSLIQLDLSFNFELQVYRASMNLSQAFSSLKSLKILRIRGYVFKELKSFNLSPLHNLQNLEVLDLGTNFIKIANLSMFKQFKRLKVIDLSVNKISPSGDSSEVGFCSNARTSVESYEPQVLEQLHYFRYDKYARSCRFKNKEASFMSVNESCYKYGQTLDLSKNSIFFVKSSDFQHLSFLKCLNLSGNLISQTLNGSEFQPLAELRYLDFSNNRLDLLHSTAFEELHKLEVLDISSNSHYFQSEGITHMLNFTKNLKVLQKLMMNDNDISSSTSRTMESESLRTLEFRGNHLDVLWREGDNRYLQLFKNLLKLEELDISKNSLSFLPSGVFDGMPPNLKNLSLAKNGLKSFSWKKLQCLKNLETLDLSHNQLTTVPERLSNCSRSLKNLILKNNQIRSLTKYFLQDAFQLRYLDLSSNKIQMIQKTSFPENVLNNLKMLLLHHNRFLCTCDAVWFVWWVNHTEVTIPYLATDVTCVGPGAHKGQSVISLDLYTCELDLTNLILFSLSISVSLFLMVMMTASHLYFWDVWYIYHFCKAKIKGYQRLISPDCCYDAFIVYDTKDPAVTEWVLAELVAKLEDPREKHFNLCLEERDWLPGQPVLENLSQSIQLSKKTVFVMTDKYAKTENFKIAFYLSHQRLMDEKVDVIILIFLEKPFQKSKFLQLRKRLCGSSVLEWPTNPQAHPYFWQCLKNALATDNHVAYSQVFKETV
How it was run: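 Readout is IL-6 and IFNα in supernatants, quantified by electrochemiluminescence, with EC50 from a sigmoidal fit of cytokine versus concentration. Healthy-donor human PBMCs, 100,000 per well, got antagonist for 1 h at 37 °C, then 6 h agonist exposure: TLR7 via GS-986 at 400 nM final, TLR9 via ODN-2216 at 3 μM final.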

[1] = target: cloned hERG potassium channel encoded by the KCNH2 gene (Homo sapiens, UniProt Q12809); assay: hERG FASTPatch assay (QPatch patch clamp, HEK293T cells); format: cell-based; conditions: HEK293T cells, 1, 3, 10 and 30 uM, room temperature; Table 27
Method: The FASTPatch® Assay (Charles River) was used to examine the in vitro effects of the compounds provided herein on the cloned hERG potassium channel encoded by the KCNH2 gene and stably expressed in HEK293T cells. Vehicle, test and control article formulations were prepared by diluting DMSO stock solutions in HB-PS (HEPES-buffered physiological saline solution) and were delivered to cells via the QPatch robot pipetting system to a final concentration of 0.3% DMSO. Test compound final concentrations of 1, 3, 10 and 30 uM were applied to cells (n >3, where n=the number of cells/concentration) in ascending order in at least three minute intervals separated by solution exchange. The positive control, 50 nM cisparide, was applied in the same manner. Cell membrane currents were recorded at room temperature with up to 48 parallel patch clamp amplifiers in the QPatch HT® or QPatch HTX® system, and only cells with validated whole-cell recordings (seal resistance >200 MQ and leak current <25% channel current) were used. Onset and block of hERG current was measured using a stimulus voltage pattern consisting of a 500 ms prepulse to −40 mV, a 2-second activating pulse to +40 mV, followed by a 2-second test pulse to −40 mV. The pulse pattern was repeated continuously at 10-second intervals from a holding potential of −80 mV. % Block={1-1/[1+([Test]/IC50)^N]}*100% Where [Test] is the concentration of test article, IC50 is the concentration of the test article producing half-maximal inhibition, N is the Hill coefficient and % Block is the percentage of current inhibited at each concentration of the test article. Nonlinear least squares fits will be solved with the Solver add-in for Excel 2000 or later (Microsoft, Redmon, WA). TurboSol analysis for test compound solubility was performed for each concentration tested using a Nephelostar reader measuring light scatter from a 635 nm laser source. Based on validation experiments, light scatter above four times the background level was considered an indication of the presence of particles in suspension.

[2] = GS-986 400 nM, 6 hours, Table 26

cloned hERG potassium channel encoded by the KCNH2 gene, sequence (Q12809 whole entry): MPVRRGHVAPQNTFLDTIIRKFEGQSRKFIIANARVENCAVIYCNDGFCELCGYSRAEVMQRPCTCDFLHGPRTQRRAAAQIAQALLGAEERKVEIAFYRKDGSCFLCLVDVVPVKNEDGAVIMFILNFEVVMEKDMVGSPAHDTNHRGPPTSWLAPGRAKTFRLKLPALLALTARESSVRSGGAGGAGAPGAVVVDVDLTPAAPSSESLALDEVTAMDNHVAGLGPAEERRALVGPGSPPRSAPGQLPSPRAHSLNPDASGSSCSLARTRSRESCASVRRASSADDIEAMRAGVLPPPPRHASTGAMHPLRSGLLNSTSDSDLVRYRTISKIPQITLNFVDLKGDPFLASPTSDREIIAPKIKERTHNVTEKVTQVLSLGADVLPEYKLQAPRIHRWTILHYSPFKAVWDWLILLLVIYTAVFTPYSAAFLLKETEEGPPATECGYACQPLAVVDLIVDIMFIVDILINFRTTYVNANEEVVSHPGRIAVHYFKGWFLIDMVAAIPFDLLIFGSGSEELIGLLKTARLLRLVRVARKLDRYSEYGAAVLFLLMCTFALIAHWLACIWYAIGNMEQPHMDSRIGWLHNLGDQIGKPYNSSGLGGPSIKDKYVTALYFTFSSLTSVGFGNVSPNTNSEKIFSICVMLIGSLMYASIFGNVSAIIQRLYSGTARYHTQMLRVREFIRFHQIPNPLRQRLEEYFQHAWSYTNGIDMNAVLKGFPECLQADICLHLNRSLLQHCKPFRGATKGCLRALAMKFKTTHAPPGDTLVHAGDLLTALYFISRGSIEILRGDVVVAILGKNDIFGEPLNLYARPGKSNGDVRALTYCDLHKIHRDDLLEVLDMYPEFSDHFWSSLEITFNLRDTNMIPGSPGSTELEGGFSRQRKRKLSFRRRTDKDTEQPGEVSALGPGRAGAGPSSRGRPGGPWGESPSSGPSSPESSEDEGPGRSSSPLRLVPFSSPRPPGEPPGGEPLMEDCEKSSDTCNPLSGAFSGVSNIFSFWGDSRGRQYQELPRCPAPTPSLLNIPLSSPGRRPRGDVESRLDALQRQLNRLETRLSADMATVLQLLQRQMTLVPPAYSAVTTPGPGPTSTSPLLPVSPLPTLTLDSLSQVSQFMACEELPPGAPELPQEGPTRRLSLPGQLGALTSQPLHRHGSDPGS

EC50 (TLR7; [2]) [µM] | EC50 (TLR7; Table 27 comparison) [µM] | Structure (SMILES) | IC50 [1] [µM]
0.0181 | – | Cc1cc(-c2[nH]c3cc(-c4ccc(N5CCNCC5)nc4)ccc3c2C)cc(C)n1 [Example 1, 2-(2,6-dimethylpyridin-4-yl)-3-methyl-6-(6-(piperazin-1-yl)pyridin-3-yl)-1H-indole] | ≥ 30
0.0173 | – | Cc1cc(-c2[nH]c3cc(-c4ccc(N5CCN(CCO)CC5)nc4)ccc3c2C)cc(C)n1 [Example 37, 2-(4-(5-(2-(2,6-dimethylpyridin-4-yl)-3-methyl-1H-indol-6-yl)pyridin-2-yl)piperazin-1-yl)ethan-1-ol] | –
0.692 | – | Cc1cc(-c2[nH]c3cc(C4CCNCC4)ccc3c2C)cc(C)n1 [Example 48, 2-(2,6-dimethylpyridin-4-yl)-3-methyl-6-(piperidin-4-yl)-1H-indole] | –
> 1 | > 1 | Cc1cc(-c2[nH]c3cc(C4CCCNC4)ccc3c2C)cc(C)n1 (stereo not drawn) [Example 53] | 19.6
0.0048 | – | Cc1cc(-c2[nH]c3cc(C4CCNCC4)ccc3c2C(C)C)cn2ncnc12 [Example 55] | –
0.0012 | – | Cc1c(-c2cc(C)c3ncnn3c2)[nH]c2cc(-c3ccc(N4CCNCC4)nc3)ccc12 [Example 71] | –
0.00033 | – | Cc1cc(-c2[nH]c3cc(-c4ccc(N5CCNCC5)nc4)ccc3c2C2CC2)cn(C)c1=O [Example 165] | –
0.00017 | – | CCc1c(-c2cc(C)c3ncnn3c2)[nH]c2cc(-c3ccc(N4CCNCC4)nc3)ccc12 [Example 167, 6-(3-ethyl-6-(6-(piperazin-1-yl)pyridin-3-yl)-1H-indol-2-yl)-8-methyl-[1,2,4]triazolo[1,5-a]pyridine] | –
0.00013 | – | CCc1c(-c2cc(OC)c3ncnn3c2)[nH]c2cc(-c3ccc(N4CCNCC4)nc3)ccc12 [Example 169] | –
